Data set [1] deals with rhodamine labeled PCILuc DNA (pDNA). As to the kind of experiment: Rhodamine labeled DNA condensation with cationic surfactants (fluorescence quenching), Example 19. In kind it is physicochemical. The procedure: (§1) PCILuc DNA (pDNA) [Zhang et al. 1997] was modified to a level of 1 rhodamine per 100 bases using Mirus' Label IT® Rhodamine kit (Rhodamine Containing DNA Labeling Reagent, Mirus Corporation). The modified pDNA (10 μg) was mixed with pDNA that was not labeled (90 μg) in water and diluted to a final concentration of 1 μg/μL with water. The modified pDNA/pDNA mixture (5 μg) was diluted with water to a final volume of 500 μL. Different amounts of CTAB were added to the solution and the fluorescence intensity of the solution was measured using a Cary Eclipse Fluorescence Spectrophotometer (ex=555, em=585, Varian, Inc.). Trubetskoy et al have shown that rhodamine labeled pDNA undergoes fluorescence quenching as the pDNA is condensed [Trubetskoy, 1999].
as §1, with “It®” for “IT®”, “dodecylamine hydrochloride” for “CTAB”

Data set [2] has as its system luciferase expression (pCI Luc / pCI Ren) in liver of ICR mice. As to the kind of experiment: HP tail vein dual luciferase: siRNA delivery (Example 77). In kind it is in vivo. To be noted: hydrophobic siRNA. The procedure:
HP Tail Vein Dual Luciferase: siRNA delivery Five complexes were prepared as follows:
Tail vein injections of 1.0 mL per 10 g body weight (˜2.5 ml) were preformed on ICR mice (n=2) using a 30 gauge, 0.5 inch needle. Injections were done manually with injection times of 4-5 sec [Zhang et al. 1999; Liu et al. 1999]. One day after injection, the livers were harvested and homogenized in lysis buffer (0.1% Triton X-100, 0.1 M K-phosphate, 1 mM DTT, pH 7.8). Insoluble material was cleared by centrifugation and 10 μl of the cellular extract or extract diluted 10× was analyzed for luciferase activity as previously reported [Wolffetal 1990].

d = 2'-deoxy (DNA); r = 2'-OH (RNA)

With `CCCCCCCCCCCCN.Cl` [NC12, dodecylamine hydrochloride], the “Fluor Int” value in data set [1] (N/P 0.6, 2 μg NC12, 0.018 mM NC12, 5 μg pDNA in 500 μL water, ex=555, em=585) was 183.656; in data set [1] (N/P 1.2, 4 μg NC12, 0.036 mM NC12), 106.095; in data set [1] (N/P 1.8, 6 μg NC12, 0.054 mM NC12), 95.586; in data set [1] (N/P 2.4, 8 μg NC12, 0.072 mM NC12), 86.119; in data set [1] (N/P 3.0, 10 μg NC12, 0.090 mM NC12), 77.670; in data set [1] (N/P 3.6, 12 μg NC12, 0.108 mM NC12) it was 68.208. In addition, the “Fluor Int” value was determined as 62.115 in data set [1] (N/P 4.2, 14 μg NC12, 0.126 mM NC12); 60.158 in data set [1] (N/P 4.8, 16 μg NC12, 0.144 mM NC12); 53.467 in data set [1] (N/P 5.4, 18 μg NC12, 0.162 mM NC12); 46.790 in data set [1] (N/P 6.0, 20 μg NC12, 0.180 mM NC12); 43.375 in data set [1] (N/P 6.5, 22 μg NC12, 0.198 mM NC12); 45.000 in data set [1] (N/P 7.1, 24 μg NC12, 0.216 mM NC12).

With `CCCCCCCCCCCCCCCC[N+](C)(C)C.[Br-]` [CTAB, cetyltrimethylammonium bromide, reference compound], in data set [1] (5 μg rhodamine pDNA mixture in 500 μL water), the “surfactant concentration at which the pDNA is condensed” value worked out at 0.33 mM. For the same molecule, the “Fluor Int” value is on record as 201.540 in data set [1] (N/P 0.4, 2 μg CTAB, 0.011 mM CTAB, 5 μg pDNA in 500 μL water, ex=555, em=585); 159.277 in data set [1] (N/P 0.7, 4 μg CTAB, 0.022 mM CTAB); 85.253 in data set [1] (N/P 1.1, 6 μg CTAB, 0.033 mM CTAB); 81.625 in data set [1] (N/P 1.4, 8 μg CTAB, 0.044 mM CTAB); 78.471 in data set [1] (N/P 1.8, 10 μg CTAB, 0.055 mM CTAB); 74.722 in data set [1] (N/P 2.2, 12 μg CTAB, 0.066 mM CTAB). The “Fluor Int” value in data set [1] (N/P 2.5, 14 μg CTAB, 0.077 mM CTAB) was determined as 67.267; in data set [1] (N/P 2.9, 16 μg CTAB, 0.088 mM CTAB), 62.799.

For the molecule “GL3-153: siRNA duplex, SEQ ID 12 and its compliment SEQ ID 13, Dharmacon (sense CUUACGCUGAGUACUUCGATT; antisense UCGAAGUACUCAGCGUAAGTT; sugars from the 5' end r19 d2, backbone not given here; listed as Photinus pyralis)”, in data set [2], the “inhibition of luciferase expression” value was “inhibits luciferase expression”.

Source of the values: patent US20030235916A1, “Novel methods for the delivery of polynucleotides to cells” (priority 2002, published 2003).
